# Publication PMC7300299, “Anticholinergic Drugs Interact With Neuroprotective Chaperone L-PGDS and Modulate Cytotoxicity of Aβ Amyloids” (Frontiers in Pharmacology, 2020)
# Target: T1, human lipocalin-type prostaglandin D synthase (L-PGDS), wild type (Homo sapiens, UniProt P41222)
# T1 construct: gene PTGDS; recombinant wild type, pNIC-CH vector, E. coli Rosetta 2 (DE3), Superdex 75 purified
# T1 sequence (P41222 23-190): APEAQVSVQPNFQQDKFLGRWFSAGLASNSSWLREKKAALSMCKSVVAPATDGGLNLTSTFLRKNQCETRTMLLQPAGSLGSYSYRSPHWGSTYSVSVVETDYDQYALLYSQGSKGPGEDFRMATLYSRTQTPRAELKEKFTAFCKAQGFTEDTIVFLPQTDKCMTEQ
# Assay: ITC (reverse titration, L-PGDS into drug)
# Conditions: read-out: Binding affinities and thermodynamic parameters / Kd^a
# Source text: ITC (reverse titration, L-PGDS into drug) on human lipocalin-type prostaglandin D synthase (L-PGDS), wild type
row,Kd [µM],Compound
1,5.7 ± 0.2,"CN(C)CCC(c1ccc(Cl)cc1)c1ccccn1 (centres unmarked) [CPM, Chlorpheniramine]"
2,6.5 ± 0.2,"O=c1n(CCCN2CCN(c3cccc(Cl)c3)CC2)nc2ccccn12 [TRD, Trazodone]"
